In patent US20070259888A1, “Novel Compounds” (ASTRAZENECA AB, priority 2006, published 2007) one finds Emax and EC50 data, which are given here for six molecules.

Assay [1] deals with T1, human M2 receptor (human Muscarinic receptor subtype 2) (Homo sapiens, UniProt P08172).
T1 construct: purchased Perkin-Elmer RBHM2M; host or cells: Chinese hamster ovary cells (CHO), membranes
T1 sequence (P08172 1-466): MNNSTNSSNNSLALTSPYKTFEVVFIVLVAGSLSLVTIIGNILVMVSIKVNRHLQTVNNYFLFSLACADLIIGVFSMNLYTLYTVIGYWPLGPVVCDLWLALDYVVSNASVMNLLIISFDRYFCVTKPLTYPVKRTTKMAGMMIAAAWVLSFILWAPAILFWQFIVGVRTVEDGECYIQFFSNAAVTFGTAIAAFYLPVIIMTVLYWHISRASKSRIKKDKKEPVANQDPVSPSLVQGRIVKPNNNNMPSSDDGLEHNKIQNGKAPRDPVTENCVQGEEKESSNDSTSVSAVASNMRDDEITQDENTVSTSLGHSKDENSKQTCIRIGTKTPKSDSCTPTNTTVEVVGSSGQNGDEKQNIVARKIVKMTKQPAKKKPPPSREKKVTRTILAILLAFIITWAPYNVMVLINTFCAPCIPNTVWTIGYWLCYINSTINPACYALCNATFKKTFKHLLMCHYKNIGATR
The experiment in a line: hM2 receptor GTPγS binding. Type of assay: biochemical. Conditions: CHO membranes expressing hM2, GTPγ35S binding; for EC50: read-out: hM2_EC50. The protocol:
hM2 Receptor GTPyS Binding
Membranes produced from Chinese hamster ovary cells (CHO) expressing the cloned human M2 receptor (human Muscarinic receptor subtype 2, gene bank access NM_000739), were obtained from Perkin-Elmer (RBHM2M). The membranes were thawed at 37° C., passed 3 times through a 23-gauge blunt-end needle, diluted in the GTPγS binding buffer (50 mM Hepes, 20 mM NaOH, 100 mM NaCl, 1 mM EDTA, 5 mM MgCl2, pH 7.4, 100 μM DTT). The EC50, IC50 and Emax of the compounds of the invention were evaluated from 10-point dose-response curves (three fold concentration range) done in 60 μl in 384-well non-specific binding surface plate (Corning). Ten microliters from the dose-response curves plate (5× concentration) were transferred to another 384 well plate containing the following: 10 μg of hM2 membranes, 500 μg of Flashblue beads (Perkin-Elmer) and GDP in a 25 μl volume. An additional 15 μl containing 3.3× (55000 dpm) of GTPγ^35S (0.4 nM final) were added to the wells resulting in a total well volume of 50 μl. Basal and maximal stimulated GTPγ^35S binding was determined in absence and presence of 30 μM of acetylcholine agonist. The membranes/beads mix were pre-incubated for 15 minutes at room temperature with 25 μM GDP prior to distribution in plates (12.5 μM final). The reversal of acetylcholine-induced stimulation (2 μM final) of GTPγ^35S binding was used to assay the antagonist properties (IC50) of the compounds. The plates were incubated for 60 minutes at room temperature with shaking, then centrifuged at 2000 rpm for 5 minutes. The radioactivity (cpm) was counted in a Trilux (Perkin-Elmer).
Values of EC50, IC50 and Emax were obtained using sigmoidal fits of a non-linear curve-fitting program (XLfit version 5.0.6 from ID Business Solutions Limited, Guildford, UK) of percent-stimulated GTPγ^35S binding vs. log (molar ligand).
All EC50 and IC50 values are reported as geometric means of ‘n’ independent experiments. […] The IC50 was the concentration of the compound of the invention at which 50% inhibition of acetylcholine GTPγ^35S binding stimulation has been observed.

Assay [2] has as its target T2, hM1 (human Muscarinic receptor subtype 1) (Homo sapiens, UniProt P11229).
T2 construct: expressed in transfected cells; host or cells: CHO cells (chinese hamster ovary cells, ATCC)
T2 sequence (P11229 1-460): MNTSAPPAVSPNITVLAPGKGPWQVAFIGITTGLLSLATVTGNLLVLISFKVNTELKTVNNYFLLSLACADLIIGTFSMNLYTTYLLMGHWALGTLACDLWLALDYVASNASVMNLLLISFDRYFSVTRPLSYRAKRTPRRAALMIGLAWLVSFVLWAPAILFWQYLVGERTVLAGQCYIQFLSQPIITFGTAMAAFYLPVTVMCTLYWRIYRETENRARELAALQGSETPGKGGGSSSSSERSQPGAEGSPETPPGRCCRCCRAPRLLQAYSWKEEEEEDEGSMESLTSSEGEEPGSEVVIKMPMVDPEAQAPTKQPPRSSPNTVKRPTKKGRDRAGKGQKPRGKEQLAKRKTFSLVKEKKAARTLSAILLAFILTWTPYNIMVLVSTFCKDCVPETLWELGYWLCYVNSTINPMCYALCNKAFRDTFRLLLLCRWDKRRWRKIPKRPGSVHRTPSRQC
Kind of assay: Human M1 calcium mobilization FLIPR assay. In kind it is cell-based. Conditions: CHO cells expressing hM1, FLIPR; for EC50: read-out: hM1EC50; for Emax: read-out: hM1Emax. The protocol: The compound activity in the present invention (EC50 or IC50) was measured using a 384 plate-based imaging assay that monitors drug induced intracellular Ca^2+ release in whole cells. Activation of hM1 (human Muscarinic receptor subtype 1, gene bank access NM_000738), rM1 (rat Muscarinic receptor subtype 1, gene bank access NM_080773), hM3 (human Muscarinic receptor subtype 3, gene bank access NM_000740NM_000740) and hM5 (human Muscarinic receptor subtype 5, gene bank access NM_0121258) receptors expressed in CHO cells (chinese hamster ovary cells, ATCC) was quantified in a Molecular Devices FLIPR II™ instrument as an increase in fluorescent signal. Inhibition of hM3 and hM5 by compounds was determined by the decrease in fluorescent signal in response to 2 nM acetylcholine activation.
CHO cells were plated in 384-black polylysine coated plate (Costar) at 8000 cells/well/50 μl for 24 hours or 4000 cells/well for 48 hours in a humidified incubator (5% CO2 and 37° C.) in DMEM/F12 medium without selection agent. Prior to the experiment the cell culture medium was removed from the plates by inversion. A loading solution of 30 μl of Hank's balanced salt solution, 10 mM Hepes and 2.5 mM Probenicid at Ph 7.4 (Cat no. 311-520-VL, Wisent) with 2 μM calcium indicator dye (FLUO-3AM, Molecular Probes F14202) was added to each well. Plates were incubated at 37° C. for 60 minutes prior to start the experiment. The incubation was terminated by washing the cells four times in assay buffer, leaving a residual 25 μl buffer per well. Cell plates were then transferred to the FLIPR, ready for compound additions.
The day of experiment, acetylcholine and compounds were diluted in three-fold concentration range (10 points serial dilution) for addition by FLIPR instrument. For all calcium assays, a baseline reading was taken for 30 seconds followed by the addition of 12.5 μl (25 μl for hM1 and rM1) of compounds, resulting in a total well volume of 37.5 μl (50 μl for hM1 and rM1). Data were collected every 1.6 seconds for 300 seconds. For hM3 and hM5 an additional 12.5 μl of acetylcholine (2 nM final) was added at 300 seconds. After this addition of acetylcholine (producing a final volume of 50 μl), the FLIPR continued to collect data every 2 seconds for 240 seconds. The fluorescence emission was read using filter 1 (emission 520-545 nm) by the FLIPR on board CCD camera.
Calcium mobilization output data were calculated as the maximal relative fluorescence unit (RFU) minus the minimal value for both compound and agonist reading frame (except for hM1 and rM1 using only the maximal RFU). Data were analyzed using sigmoidal fits of a non-linear curve-fitting program (XLfit version 5.0.6 from ID Business Solutions Limited, Guildford, UK). All EC50 and IC50 values are reported as geometric means of ‘n’ independent experiments.

Where only a bound is given, the exact number is not on record here.

Regarding `CCOC[C@@H]1CCCN(C[C@H]2CCCC[C@@H]2NC(=O)c2cc3nc(C)cc(C)n3n2)C1` [N-((1S,2R)-2-{[(3R)-3-(ethoxymethyl)piperidin-1-yl]methyl}cyclohexyl)-5,7-dimethylpyrazolo[1,5-a]pyrimidine-2-carboxamid], in assay [1], the Emax came out at 0% and the EC50 was greater than 30000 nM. In assay [2], the EC50 was determined as 22 nM and the Emax came to 82%.
The matching figures for `CCOC[C@@H]1CCCN(C[C@H]2CCCC[C@@H]2NC(=O)c2ccccc2)C1` [N-((1S,2R)-2-{[(3R)-3-(ethoxymethyl)piperidin-1-yl]methyl}cyclohexyl)benzamide]: 34%, 1910 nM, 119 nM and 74%.
The matching figures for `CCOC[C@@H]1CCCN(C[C@H]2CCCC[C@@H]2NC(=O)c2ccc(CNS(=O)(=O)C3CC3)cc2)C1`: 40%, 1430 nM, 11 nM and 102%.
The corresponding values for `CCOC[C@@H]1CCCN(C[C@H]2CCCC[C@@H]2NC(=O)c2ccc(CNS(C)(=O)=O)cc2)C1` [N-((1S,2R)-2-{[(3R)-3-(ethoxymethyl)piperidin-1-yl]methyl}cyclohexyl)-4-{[(methylsulfonyl)amino]methyl}benzamide] are 34%, 1340 nM, 20 nM and 95%.
Regarding `CCOC[C@@H]1CCCN(C[C@H]2CCCC[C@@H]2NC(=O)c2ccc(N3CCCC3)nc2)C1` [N-((1S,2R)-2-{[(3R)-3-(ethoxymethyl)piperidin-1-yl]methyl}cyclohexyl)-6-pyrrolidin-1-ylnicotinamide], in assay [1], the Emax is 60% and the EC50 came out at 107 nM. For the same molecule, in assay [2], the EC50 amounted to 41 nM and the Emax turned out to be 91%.
As to `C=CCOCC1CCCN(C[C@@H]2CCCC[C@H]2NC(=O)c2ccc(CN3CCN(C)CC3)cc2)C1` (mixture of isomers) [Trans-(±)-N-[2-({3-[(Allyloxy)methyl]piperidin-1-yl}methyl)cyclohexyl]-4-[(4-methylpiperazin-1-yl)methyl]benzamide], the Emax in assay [1] was determined as 19%; in assay [2] it was 80%. For the same molecule, the EC50 in assay [1] was 390 nM; in assay [2], 49 nM.
